From the supplement of paper PMC11061612

What was measured:
Assay in all cases: Bliss excess, mean over the matrix (fraction); higher = more synergy
[1] = test system: HH (T-Cell Non-Hodgkin's Lymphoma)
Method in brief: (§1)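 Cell lines in DMEM/F12 or RPMI with 10% FBS were plated in 1536-well plates, held 24 hours at 37°C, 5% CO2, then given two-drug dose matrices for 72 hours (DMSO typically 0.2%). Viability was read by CellTiter-Glo 2.0 luminescence and scaled as inhibition from 0 (vehicle wells) to 1 (blank wells). Combination Emax is the second-highest inhibition in the matrix; Bliss excess is observed combination effect minus expected EA + EB − EA·EB, EA and EB being single-agent effects.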

[2] = test system: YAPC (Pancreatic Carcinoma)
Method in brief: as §1

[3] = test system: NCI-H209 (Small Cell Lung Carcinoma)
Method in brief: as §1

EW-11 (Ewing's Sarcoma) = test system: EW-11 (Ewing's Sarcoma)
Method in brief: as §1

[4] = test system: LNZTA3WT4 (Low Grade Glioma)
Method in brief: as §1

[5] = test system: ALL-PO (B-Lymphoblastic Leukemia)
Method in brief: as §1

[6] = test system: CAL-33 (Oral Cavity Carcinoma)
Method in brief: as §1

[7] = test system: ESS-1 (Other Solid Carcinomas)
Method in brief: as §1

[8] = test system: SW1710 (Bladder Carcinoma)
Method in brief: as §1

LOXIMVI (Melanoma) = test system: LOXIMVI (Melanoma)
Method in brief: as §1

[9] = test system: FTC-133 (Thyroid Gland Carcinoma)
Method in brief: as §1

[10] = test system: HuCCT1 (Biliary Tract Carcinoma)
Method in brief: as §1

[11] = test system: BFTC-909 (Kidney Carcinoma)
Method in brief: as §1

[12] = test system: OV-56 (Ovarian Carcinoma)
Method in brief: as §1

GAMG (Glioblastoma) = test system: GAMG (Glioblastoma)
Method in brief: as §1

[13] = test system: OVCAR-5 (Ovarian Carcinoma)
Method in brief: as §1

[14] = test system: NUGC-4 (Gastric Carcinoma)
Method in brief: as §1

NCI-H2052 (Mesothelioma) = test system: NCI-H2052 (Mesothelioma)
Method in brief: as §1

[15] = test system: L-428 (Hodgkin's Lymphoma)
Method in brief: as §1

SMILES	Bliss excess [1]	Bliss excess [2]	Bliss excess [3]	Bliss excess (EW-11 (Ewing's Sarcoma))	Bliss excess [4]	Bliss excess [5]	Bliss excess [6]	Bliss excess [7]	Bliss excess [8]	Bliss excess (LOXIMVI (Melanoma))	Bliss excess [9]	Bliss excess [10]	Bliss excess [11]	Bliss excess [12]	Bliss excess (GAMG (Glioblastoma))	Bliss excess [13]	Bliss excess [14]	Bliss excess (NCI-H2052 (Mesothelioma))	Bliss excess [15]
COc1cccc(OCCCN)c1-c1cc(Nc2cnc(C#N)cn2)n[nH]1 [Prexasertib] + O=C(c1cc(Cc2n[nH]c(=O)c3ccccc23)ccc1F)N1CCN(C(=O)C2CC2)CC1 [Olaparib] (first compound max 1 µM, 7x7, partner max 10 µM)	-0.121	-0.0491	-0.0442	-0.0849	-0.0274	-0.0194	-0.012	0.0054	-0.0857	-0.0372	-0.0399	-0.0824	-0.0109	-0.0739	0.0122	-0.17	-0.019	-0.0332	-0.0418
O=C(c1cc(Cc2n[nH]c(=O)c3ccccc23)ccc1F)N1CCN(C(=O)C2CC2)CC1 [Olaparib] + Cc1c2c(nn1C)CSCc1cc(n(C)n1)CSc1cc(c3ccccc3c1)OCCCc1c(C(=O)O)n(C)c3c-2c(Cl)ccc13 [AZD5991] (first compound max 10 µM, 7x7, partner max 1 µM)	-0.0339	-0.0367		-0.0175	-0.0468			-0.0255	-0.0476	-0.0409		-0.0367			-0.0488	-0.0729			
Cc1nc(-c2cn3c(n2)-c2ccc(-c4cnn(C(C)(C)C(N)=O)c4)cc2OCC3)n(C(C)C)n1 [Taselisib] + O=C(Nc1ccc2[nH]nc(-c3ccncc3)c2c1)[C@@H]1CCN(CC(=O)N2CCN(c3ccc(-c4ncccn4)cc3)CC2)C1 [SCH772984] (first compound max 10 µM, 7x7, partner max 5 µM)	0.0858	0.134		-0.002	-0.0617			0.0682	-0.0048	0.091		0.072			0.0241	0.0022			
C[C@@H](Oc1cc(-c2cnn(C3CCNCC3)c2)cnc1N)c1c(Cl)ccc(F)c1Cl [Crizotinib] + Cn1cnc2c(F)c(Nc3ccc(Br)cc3Cl)c(C(=O)NOCCO)cc21 [Selumetinib] (first compound max 10 µM, 7x7, partner max 10 µM)	-0.0238	-0.0319		-0.0627	-0.0285			-0.0634	-0.0956	-0.0068		-0.0516			-0.0308	-0.0324			
C=CCn1c(=O)c2cnc(Nc3ccc(N4CCN(C)CC4)cc3)nc2n1-c1cccc(C(C)(C)O)n1 [AZD1775] + CCc1c2c(nc3ccc(O)cc13)-c1cc3c(c(=O)n1C2)COC(=O)[C@]3(O)CC [SN-38] (first compound max 1 µM, partner max 0.3 µM)	-0.0696	-0.0599		-0.113	-0.0414			-0.0011	0.0053	-0.0862		-0.0281			0.001	-0.0215			
O=C(c1cc(Cc2n[nH]c(=O)c3ccccc23)ccc1F)N1CCN(C(=O)C2CC2)CC1 [Olaparib] + CN(CC[C@H](CSC1=CC=CC=C1)NC2=C(C=C(C=C2)S(=O)(=O)NC(=O)C3=CC=C(C=C3)N4CCC(CC4)[C@H](C5=CC=CC=C5C6=CC=C(C=C6)Cl)O)S(=O)(=O)C(F)(F)F)CCO [AZD4320] (first compound max 10 µM, 7x7, partner max 1 µM)	-0.0133	-0.0169		0.0141	-0.0332			0.0825	-0.0397	0.0022		-0.0518			-0.034	-0.0414			
C[C@@H](Nc1cc(F)cc(F)c1)c1cc(C(=O)N(C)C)cc2c(=O)cc(N3CCOCC3)oc12 [AZD8186] + CC(=O)c1c(C)c2cnc(Nc3ccc(N4CCNCC4)cn3)nc2n(C2CCCC2)c1=O [Palbociclib] (first compound max 10 µM, 7x7, partner max 10 µM)	0.0853	-0.0101		-0.0053	0.111			-0.0114	0.0531	0.0909		0.0428			-0.0098	0.0014			
CS(=O)(=O)CCNCc1ccc(-c2ccc3ncnc(Nc4ccc(OCc5cccc(F)c5)c(Cl)c4)c3c2)o1 [Lapatinib] + NC1(c2ccc(-c3nc4ccn5c(=O)[nH]nc5c4cc3-c3ccccc3)cc2)CCC1 [MK-2206] (first compound max 10 µM, 7x7, partner max 10 µM)	-0.0002	0.0208		-0.0003	-0.0334			0.005	-0.0417	0.043		-0.018	-0.0279		0.016	-0.0101		-0.0143	
C[C@@H]1COCCN1c1cc(C2([S@](C)(=N)=O)CC2)nc(-c2ccnc3[nH]ccc23)n1 [AZD6738] + C1CC(C1)(C(=O)[O-])C(=O)[O-].N.N.[Pt+2] [Carboplatin] (first compound max 10 µM, 7x7, partner max 10 µM)	-0.0016	-0.0227		-0.041	-0.0459			0.0196	-0.0642	-0.0438		-0.0477			-0.0162	-0.0347			
